From patent US6670448B2, “Peptide antagonists of zonulin and methods for use of the same” (University of Maryland, Baltimore, priority 1998, dated 2003)
No end group written: not given here.

Tested on: rabbit ileum
Experiment: Peptide antagonists FZI/0 and FZI/1 on rabbit ileum in Ussing chambers, alone or before ZOT or zonulin
Assay type: cell-based
Method: Next, Ussing chamber assays were carried out using ileum from 2-3 kg adult male New Zealand white rabbits, which were sacrificed by cervical dislocation. A 20 cm segment of ileum was removed, rinsed free of the intestinal content, opened along the mesenteric border, and stripped of muscular and serosal layers. Eight sheets of mucosa so prepared were then mounted in lucite Ussing chambers (1.12 cm^2 opening), connected to a voltage clamp apparatus (EVC 4000 WPI, Saratosa, Fla.), and bathed with freshly prepared Ringer's solution comprising 53 mM NaCl, 5.0 mM KCl, 30.5 mM mannitol, 1.69 mM Na2HPO4, 0.3 mM NaH2PO4, 1.25 mM CaCl2, 1.1 mM MgCl2, and 25 mM NaHCO3. The bathing solution was maintained at 37° C. with water-jacketed reservoirs connected to a constant-temperature circulating pump and gassed with 95% O2/5% CO2.
100 μl of zonulin purified from rabbit intestine was added to the mucosal side. The potential difference (PD) was measured every 10 min, and the short-circuit current (Isc) and tissue resistance (Rt) were calculated as described by Fasano et al, supra. Because of tissue variability, data were calculated as ΔRt (Rt at time x)−(Rt at time 0).
Next, rabbit ileum mounted in Ussing chambers as described above, were exposed to 100 μg of FZI/0 (SEQ ID NO:15), 100 μg ofFZI/1 (SEQ ID NO:34), 1.0 μg of 6xHis-ZOT (obtained as described in Example 1), 1.0 μg of zonulini (obtained as described in Example 3), or 1.0 μg of zonulinh (obtained as described in Example 3) alone; or pre-exposed for 20 min to 100 μg of FZI/0 or FZI/1, at which time 1.0 μg of 6xHis-ZOT, 1.0 μg of zonulini, or 1.0 μg of zonulinh, was added. ΔRt was then calculated as described above.

Sequence | change in Rt as compared to the negative control, peptide alone (100 μg peptide alone, not significant, FIG. 8 closed bar) [%] | decrease of the effect of ZOT on Rt (pre-treatment 20 min with 100 μg peptide, then 1.0 μg 6xHis-ZOT, FIG. 8) [%] | decrease of the effect of zonulinh on Rt (pre-treatment 20 min with 100 μg peptide, then 1.0 μg zonulinh, FIG. 8) [%] | decrease of the effect of zonulini on Rt (pre-treatment 20 min with 100 μg peptide, then 1.0 μg zonulini, FIG. 8) [%] | inhibitory effect on the action of ZOT, zonulini and zonulinh on Rt (pre-exposure 20 min to 100 μg peptide, FIG. 8 shaded bar)
GGVLVQPG [FZI/0, synthetic octapeptide corresponding to amino acid residues 8-15 of human fetal zonulini] | 0.5 | 75 | 100 | 97 | –
VGVLGRPG [FZI/1, second synthetic peptide with positions 8, 12 and 13 changed to the residues of zonulinb (Val, Gly, Arg)] | – | – | – | – | completely ablated
